{
  "source": "patent US20050069522A1",
  "about": "“Combination pharmaceutical agents as inhibitors of HCV replication” (priority 2002, published 2005)",
  "key": {"[1]": {"assay": "Alamar blue cytotoxicity (CC50), wild-type replicon cells", "assay_type": "cell-based", "details": "human, Huh-7 cells carrying the wild-type HCV 377-neo replicon; Wild-type replicon cell line"}, "[2]": {"details": "human"}, "[3]": {"system": "wild-type Blast/Luciferase HCV replicon", "assay_type": "cell-based", "details": "0.5 μM Compound 124"}, "[4]": {"system": "HCV replicon (HCV 1b-377-neo replicon cells)", "assay": "HCV replicon cell line FRET assay", "assay_type": "cell-based", "details": "Hepatitis C virus"}, "[5]": {"details": "read-out: Replicon Inhibition Range EC50"}, "[6]": {"details": "Wild-type replicon cell line, FRET assay, read-out: EC50"}, "[7]": {"details": "HCV replicon cell line, FRET assay, read-out: Replicon Inhibition Range EC50"}},
  "note": "Like-named read-outs stand apart in the source and are kept apart here.",
  "data": [
    {"smiles": "C[C@H](NC(=O)Cc1ccccc1)C(=O)Nc1ccc(C2S/C(=N\\c3cccc(F)c3)N(Cc3ccco3)C2=O)cc1", "note": "(stereo partly drawn) [Compound 124, (N-{4-[2-(3-fluorophenylimino)-3-furan-2-ylmethyl-4-oxo-thiazolidin-5-yl]phenyl}-2S-(phenylacetylamino))propionamide]", "values": [
      {"measurement": "CC50 at 72 h", "setting": "[1]", "value": "> 5000", "unit": "nM"},
      {"measurement": "CC50 at 72 h", "setting": "[2]", "value": "> 5000", "unit": "nM"},
      {"measurement": "replication of the replicon in the presence of compound", "setting": "[3]", "value": "completely inhibited"},
      {"measurement": "EC50", "setting": "[4]; [5]", "value": "< 100", "unit": "nM"},
      {"measurement": "EC50", "setting": "[4]; [6]", "value": 103, "unit": "nM"}
    ]},
    {"smiles": "C[C@H](NC(=O)OCc1ccccc1)C(=O)Nc1ccc(C2S/C(=N\\c3cccc(F)c3)N(Cc3ccco3)C2=O)cc1", "note": "(stereo partly drawn) [Compound 1, (1S-(4-[2-(3-Fluorophenylimino)-3-furan-2-ylmethyl-4-oxo-thiazolidin-5-yl]-phenylcarbamoyl)ethyl)carbamic acid benzyl ester]", "values": [
      {"measurement": "CC50 at 72 h", "setting": "[1]", "value": "> 5000", "unit": "nM"},
      {"measurement": "CC50 at 72 h", "setting": "[2]", "value": "> 5000", "unit": "nM"},
      {"measurement": "EC50", "setting": "[4]; [5]", "value": "100 to 1000", "unit": "nM"},
      {"measurement": "EC50", "setting": "[4]; [6]", "value": 1500, "unit": "nM"}
    ]},
    {"smiles": "O=C(Nc1ccc(C2S/C(=N\\c3ccc(N4CCOCC4)cc3)N(Cc3ccccn3)C2=O)cc1)[C@@H]1CCCN1S(=O)(=O)Cc1ccccc1", "note": "(stereo partly drawn) [Compound 132]", "values": [
      {"measurement": "EC50", "setting": "[4]; [7]", "value": "1000 to 5000", "unit": "nM"}
    ]},
    {"smiles": "O=C(Nc1cccc(C2S/C(=N\\c3cccc(F)c3)N(Cc3ccco3)C2=O)c1)[C@@H]1CCCN1C(=O)OCc1ccccc1", "note": "(stereo partly drawn) [Compound 33]", "values": [
      {"measurement": "EC50", "setting": "[4]; [7]", "value": "1000 to 5000", "unit": "nM"}
    ]},
    {"smiles": "C/N=C1\\SC(c2ccc(NC(=O)[C@@H]3CCCN3C(=O)Cc3ccccc3)cc2)C(=O)N1Cc1ccccn1", "note": "(stereo partly drawn) [Compound 101]", "values": [
      {"measurement": "EC50", "setting": "[4]; [7]", "value": "< 100", "unit": "nM"}
    ]}
  ]
}
